What was measured:
mu opiate receptor (MOR) = biological target: T1, mu opiate receptor (MOR) (Rattus norvegicus, UniProt P33535); assay: [35S]GTPγS binding assay using striatal membranes (MOR agonist activity); format: biochemical; design: MOR agonist activity, [35S]GTPγS binding to Gαo, 0.1 μM / MOR agonist activity, [35S]GTPγS binding to Gαo, 1 μM / MOR agonist activity, [35S]GTPγS binding to Gαo, 1 μM + BFNA: reference not given here; conditions: for MOR agonist activity, [35S]GTPγS binding to Gαo, 0.1 μM: 0.1 μM compound; for MOR agonist activity, [35S]GTPγS binding to Gαo, 0.1 μM / MOR agonist activity, [35S]GTPγS binding to Gαo, 1 μM: striatal membranes; for MOR agonist activity, [35S]GTPγS binding to Gαo, 1 μM + BFNA: 1 μM compound + 1 μM β-funaltrexamine; for MOR agonist activity, [35S]GTPγS binding to Gαo, 1 μM: 1 μM compound
T1 construct: from tissue; host or cells: striatal tissue (membrane preparation)
Protocol: To assess the mu opiate receptor (MOR) agonist activity of positive compounds from the FLNA screening, compounds were tested in a [^35S]GTPγS binding assay using striatal membranes. Our previous study has shown that in striatal membranes, activation of MOR leads to an increase in [^35S]GTPγS binding to Gαo (Wang et al., 2005 Neuroscience 135:247-261).
Striatal tissue was homogenized in 10 volumes of ice cold 25 mM HEPES buffer, pH 7.4, which contained 1 mM EGTA, 100 mM sucrose, 50 μg/ml leupeptin, 0.04 mM PMSF, 2 μg/ml soybean trypsin inhibitor and 0.2% 2-mercaptoethanol. The homogenates were centrifuged at 800×g for 5 minutes and the supernatants were centrifuged at 49,000×g for 20 minutes. The resulting pellets were suspended in 10 volume of reaction buffer, which contained 25 mM HEPES, pH 7.5, 100 mM NaCl, 50 μg/ml leupeptin, 2 μg/ml soybean trypsin inhibitor, 0.04 mM PMSF and 0.02% […].
The resultant striatal membrane preparation (200 μg) was admixed and maintained (incubated) at 30° C. for 5 minutes in reaction buffer as above that additionally contained 1 mM MgCl2 and 0.5 nM [^35S]GTPγS (0.1 μCi/assay, PerkinElmer Life and Analytical Sciences) in a total volume of 250 μl and continued for 5 minutes in the absence or presence of 0.1-10 μM of an assayed compound of interest. The reaction was terminated by dilution with 750 μl of ice-cold reaction buffer that contained 20 mM MgCl2 and 1 mM EGTA and immediate centrifugation at 16,000×g for 5 minutes.
The resulting pellet was solubilized by sonicating for 10 seconds in 0.5 ml of immunoprecipitation buffer containing 0.5% digitonin, 0.2% sodium cholate and 0.5% NP-40. Normal rabbit serum (1 μl) was added to 1 ml of lysate and incubated at 25° C. for 30 minutes. Nonspecific immune complexes were removed by incubation with 25 μl of protein A/G-conjugated agarose beads at 25° C. for 30 minutes followed by centrifugation at 5,000×g at 4° C. for 5 minutes. The supernatant was divided and separately incubated at 25° C. for 30 minutes with antibodies raised against Gαo proteins (1:1,000 dilutions).
The immunocomplexes so formed were collected by incubation at 25° C. for 30 minutes with 40 μl of agarose-conjugated protein A/G beads and centrifugation at 5,000×g at 4° C. for 5 minutes. The pellet was washed and suspended in buffer containing 50 mM Tris-HCl, pH 8.0, and 1% NP-40. The radioactivity in the suspension was determined by liquid scintillation spectrometry. […] DAMGO (H-Tyr-D-Ala-Gly-N-MePhe-Gly-OH; 1 or 10 μM) was used as a positive control.

[1] = biological target: Bn-VAKGL pentapeptide of filamin A (FLNA) (Homo sapiens, UniProt P21333); assay: FITC-NLX-based FLNA screening assay (FLNA peptide binding assay); conditions: for Percent inhibition of FITC-NLX binding, 0.01 μM: 0.01 μM compound; for Percent inhibition of FITC-NLX binding, 0.01 μM / Percent inhibition of FITC-NLX binding, 0.1 μM / Percent inhibition of FITC-NLX binding, 1 μM: 10 nM FITC-NLX; for Percent inhibition of FITC-NLX binding, 0.1 μM: 0.1 μM compound; for Percent inhibition of FITC-NLX binding, 1 μM: 1 μM compound
Protocol: The final assay volume is 100 μl.
Compounds are tested in triplicate or quadruplicate.

T1 sequence (P33535 whole entry): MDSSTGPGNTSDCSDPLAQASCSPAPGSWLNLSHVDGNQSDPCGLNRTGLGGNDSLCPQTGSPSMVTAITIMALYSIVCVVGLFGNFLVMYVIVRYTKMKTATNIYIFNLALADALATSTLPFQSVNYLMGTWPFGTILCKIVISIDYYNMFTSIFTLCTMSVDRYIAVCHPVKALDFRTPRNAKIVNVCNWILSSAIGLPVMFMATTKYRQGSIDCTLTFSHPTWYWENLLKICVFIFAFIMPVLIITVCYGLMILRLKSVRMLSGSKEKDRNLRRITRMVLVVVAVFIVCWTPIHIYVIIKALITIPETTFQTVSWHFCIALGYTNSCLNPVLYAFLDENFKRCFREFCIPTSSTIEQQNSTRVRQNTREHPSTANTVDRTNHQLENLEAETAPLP

Row | Compound | MOR agonist activity, [35S]GTPγS binding to Gαo, 0.1 μM (mu opiate receptor (MOR)) [%] | MOR agonist activity, [35S]GTPγS binding to Gαo, 1 μM + BFNA (mu opiate receptor (MOR)) [%] | MOR agonist activity, [35S]GTPγS binding to Gαo, 1 μM (mu opiate receptor (MOR)) [%] | Percent inhibition of FITC-NLX binding, 0.01 μM [1] [%] | Percent inhibition of FITC-NLX binding, 0.1 μM [1] [%] | Percent inhibition of FITC-NLX binding, 1 μM [1] [%] | inhibition at 0.01 µM ([1]; read-out: Percent inhibition of FITC-NLX binding, 0.01 μM) [%] | inhibition at 0.1 µM ([1]; read-out: Percent inhibition of FITC-NLX binding, 0.1 μM) [%] | inhibition at 1 µM ([1]; read-out: Percent inhibition of FITC-NLX binding, 1 μM) [%] | % DAMGO + BFNA (mu opiate receptor (MOR); 1 μM + BFNA, relative to DAMGO + BFNA) [%]
1 | COc1c2c(cc3c1C(CC(=O)c1ccc(C#N)cc1)[N+](C)(C)CC3)OCO2 (stereo not shown) [B0001] | 128.2 | 28.0 | 202.3 | – | – | – | – | – | – | –
2 | COc1c2c(cc3c1C(CC(=O)c1ccc(O)c(C)c1)[N+](C)(C)CC3)OCO2 (stereo not shown) [B0002] | 165.7 | 101.4 | 219.0 | 40.2 | 46.4 | 55.0 | – | – | – | –
3 | COc1c2c(cc3c1C(CC(=O)c1ccc(F)c(F)c1)[N+](C)(C)CC3)OCO2 (stereo not shown) [B0003] | 103.0 | 18.6 | 131.1 | – | – | – | 45.4 | 52.9 | 63.5 | –
4 | COc1c2c(cc3c1C(CC(=O)c1ccc(N4CCOCC4)cc1)[N+](C)(C)CC3)OCO2 (stereo not shown) [B0004] | 170.3 | 72.0 | 231.7 | – | – | – | – | – | – | 110.0
5 | COc1c2c(cc3c1C(CC(=O)c1ccncc1)[N+](C)(C)CC3)OCO2 (stereo not shown) [B0005] | 89.2 | 45.1 | 110.4 | 31.8 | 34.8 | 41.7 | – | – | – | –
6 | COc1c2c(cc3c1C(CC(=O)c1cccc(C(F)(F)F)c1)[N+](C)(C)CC3)OCO2 (stereo not shown) [B0006] | 77.0 | 18.6 | 131.3 | – | – | – | – | – | – | –
7 | COc1cc(F)ccc1C(=O)CC1c2c(cc3c(c2OC)OCO3)CC[N+]1(C)C (stereo not shown) [B0007] | 168.3 | 64.5 | 223.3 | – | – | – | – | – | – | –
8 | COc1cc(CC(=O)CC2c3c(cc4c(c3OC)OCO4)CC[N+]2(C)C)cc(OC)c1OC (stereo not shown) [B0008] | 148.3 | 46.0 | 264.1 | 35.5 | 40.3 | 52.8 | – | – | – | –
9 | COc1c2c(cc3c1C(CC(=O)Cc1ccc(Br)cc1)[N+](C)(C)CC3)OCO2 (stereo not shown) [B0011] | 158.6 | 78.0 | 212.6 | 40.9 | 50.3 | 55.8 | – | – | – | –
10 | COc1c2c(cc3c1C(CC(=O)Cc1ccc(C#N)cc1)[N+](C)(C)CC3)OCO2 (stereo not shown) [B0012] | 167.4 | 145.1 | 212.0 | 39.4 | 46.9 | 51.7 | – | – | – | –
11 | COc1ccc(CCC(=O)CC2c3c(cc4c(c3OC)OCO4)CC[N+]2(C)C)cc1 (stereo not shown) [B0016] | 167.7 | 72.2 | 213.6 | – | – | – | – | – | – | –
12 | COc1c2c(cc3c1C(CC(=O)CCc1ccc(Cl)cc1)[N+](C)(C)CC3)OCO2 (stereo not shown) [B0017] | 99.6 | 49.6 | 122.0 | 28.3 | 36.6 | 44.6 | – | – | – | –
13 | COc1c2c(cc3c1C(CC(=O)CCc1ccc(F)cc1)[N+](C)(C)CC3)OCO2 (stereo not shown) [B0018] | 118.8 | 45.6 | 143.0 | 37.2 | 43.7 | 47.6 | – | – | – | –
14 | COc1c2c(cc3c1C(CC(=O)/C=C/c1ccc(Cl)cc1)[N+](C)(C)CC3)OCO2 (stereo not shown) [B0019] | 101.0 | 81.4 | 256.5 | 34.3 | 41.0 | 49.0 | – | – | – | –
15 | CCOc1ccc(C(=O)CC2c3c(cc4c(c3OC)OCO4)CC[N+]2(C)C)cc1F (stereo not shown) [B0020] | 51.6 | 24.9 | 181.6 | 38.1 | 45.5 | 50.6 | – | – | – | –
16 | COc1ccc(C(=O)CC2c3c(cc4c(c3OC)OCO4)CC[N+]2(C)C)cc1C.[I-] (stereo not shown) [B0021] | 126.9 | 42.9 | 256.4 | 32.5 | 43.1 | 47.6 | – | – | – | –
17 | COc1cccc(OC)c1C(=O)CC1c2c(cc3c(c2OC)OCO3)CC[N+]1(C)C.[I-] (stereo not shown) [B0023] | 166.1 | 28.4 | 245.3 | 28.5 | 37.8 | 46.4 | – | – | – | –
18 | COc1ccc(C(=O)CC2c3c(cc4c(c3OC)OCO4)CC[N+]2(C)C)cc1 (stereo not shown) [B0024] | 155.8 | 20.2 | 285.9 | 34.8 | 43.4 | 47.7 | – | – | – | –
19 | COc1ccccc1C(=O)CC1c2c(cc3c(c2OC)OCO3)CC[N+]1(C)C (stereo not shown) [B0025] | 159.6 | 137.7 | 234.6 | 41.7 | 49.4 | 56.6 | – | – | – | –
20 | COc1ccc(CCC(=O)CC2c3c(cc4c(c3OC)OCO4)CCN2C)cc1 (stereo not shown) [B0047] | 187.8 | 68.4 | 235.6 | – | – | – | – | – | – | –
21 | COc1c2c(cc3c1C(CC(=O)Cc1ccccc1C)N(C)CC3)OCO2 (stereo not shown) [B0053] | 160.2 | 134.3 | 299.8 | – | – | – | – | – | – | –
22 | COc1c2c(cc3c1C(CC(=O)Cc1ccccc1F)[N+](C)(C)CC3)OCO2.[I-] (stereo not shown) [B0055] | 162.1 | 117.5 | 338.5 | – | – | – | – | – | – | –
23 | COc1ccc(CCCCC2c3c(cc4c(c3OC)OCO4)CC[N+]2(C)C)cc1 (stereo not shown) [B0056] | 174.7 | 41.8 | 288.8 | – | – | – | – | – | – | –
